Measured values reported in US12350247B2, “Use of APE1/Ref-1 inhibitors for treatment of retinal diseases” (Indiana University Research and Technology Corporation, priority 2017, dated 2025).
Where two headings read alike, the source gives them in different places.

Key:
CA9 [1] = assay: CA9 protein expression in 10.05 3D tumor spheroids (Western blot); assay type: cell-based, human; details: 3D spheroid cultures, 12 days, treated on days 4 and 8
Experimental: (§1) Western Blot Analysis: Immunoblotting was performed using antibodies for APE1/Ref-1 (Novus Biologicals; Littleton, CO), CA9 (Santa Cruz; Dallas, Texas), Actin (NeoMarkers; Fremont, CA), and Vinculin (Sigma; St. Louis, MO).
The effect of APE1/Ref-1 redox inhibition on CA9 protein expression was also measured in 3D tumor spheroids.

Pa03C [2] = assay: 3D tumor spheroid culture growth (fluorescence intensity); details: read-out: LC50; 3D Cultures, Tumor Alone, Pa03C, D12 curves
CAFs (CAF19 cells) = assay: 3D spheroid co-culture, CAF signal (green channel); details: read-out: LC50, 3D Cultures, CAFs
Panc10.05 [3] = assay: 3D tumor spheroid culture growth (fluorescence intensity); details: read-out: LC50; 3D Cultures, Tumor Alone, Panc10.05, D12 curves
10.05 cells = assay: Intracellular pH assay (pHrodo Red AM) in hypoxic 10.05 cells; assay type: cell-based, human; details: 0.2% O2 48 hrs; up to 50 μM APX3330, 100 μM SLC-0111; 8 APX2009, 5 μM APX2014
Excerpt: Therefore, the APX3330 analogs, APX2009 and APX2014, were used to determine whether APE1/Ref-1 redox inhibition alone can shift intracellular pH in hypoxic PDAC cells given a sufficiently potent inhibitor.

Pa03C [4] = assay: Monolayer cytotoxicity under hypoxia (alamarBlue); assay type: cell-based; details: N = 3, read-out: LC50 (the source's name)
Excerpt: (§2) To determine target selectivity, analogs of APX3330, APX2009 and APX2014, and an analog of SLC-0111, FC12-531A, were used.

Panc10.05 [5] = assay: Monolayer cytotoxicity under hypoxia (alamarBlue); assay type: cell-based
Excerpt: as §2

CA9 [6] = assay: Hypoxia-induced CA9 mRNA and protein levels in 10.05 monolayer cells; assay type: cell-based, human; details: 10.05 cells, 0.2% O2 for 24 hours
Experimental: as §1
The comparative Ct method was used to quantitate mRNA levels using RPLP0 and B2M as reference genes. The primers for CA9, RPLP0, and B2M are commercially available (Applied Biosystems). Experiments were performed in triplicate for each sample.

[7] = tested on: Pa03C and Panc10.05 tumor cells; assay: 3D spheroid / co-culture model of pancreatic cancer (both patient lines); details: for single agent efficacy on 3D spheroid growth: treated on days 4 and 8, FIG. 17
Experimental: Pa03C cells were plated into 3D cultures alone or with CAF19 cells.
Pa03C and Panc10.05 tumor cells were grown in 3D cultures in the presence of CAFs. Spheroids were treated with either single agents, vehicle (DMSO) or combination of targeted agents on days 4 and 8 (black arrows), and the intensity of tumor (red) and CAF (green) were quantified as described in Example 7 every 3-4 days in culture.

PDAC cells and CAFs = assay: 3D co-culture cytotoxicity, Ref-1 inhibition with docetaxel or trametinib; assay type: cell-based
Excerpt: Standard 3D co-culture assays as prepared in Arpin, C. et al., Mol Cancer Ther 15, 794-805 (2016); Logsdon, P. et al., Mol Cancer Ther 15, 2722-2732 (2016); Cardoso, A. et al., PloS one 7, e4742 (2012); and Kelley, M. et al., The Journal of pharmacology and experimental therapeutics 359, 300-309 (2016) were used to evaluate the cytotoxicity of the combinations on tumor cells as well as cancer-associated fibroblasts.

[8] = tested on: patient-derived Pa03C tumors with CAFs; assay: Flank co-culture model of PDAC, APX3330 and Ruxolitinib; assay type: in vivo, mice; details: treatment alone, 50 mg/kg, day 28
Experimental: Treatment of the implanted tumors started on day 11 post implant. Particularly, the co-cultures implanted included 2.5×10^6 tumor cells +/−5 ×10^6 CAFs, providing a 1:2 ratio of tumor cell to CAF. […] The mice were then administered either 50 mg/kg APX3330 BID in 4% Cr:EtOH, 50 mg/kg Rux SID pm in 4% Cr:EtOH, or combinations of the agents. Treatment schedule consisted of treating for 5 days and then giving 2 days off treatment until the tumors reached an average size of 2000 mm^3.

[9] = tested on: patient-derived PDAC cell lines (10.05, Pa02C, Pa03C); assay: SLC-0111 efficacy in PDAC cell lines under hypoxic conditions; assay type: cell-based; details: Homo sapiens, all three patient-derived PDAC cell lines, 0.2% O2, read-out: LC50 during hypoxia exposure
Experimental: The efficacy of SLC-0111, a CA9 inhibitor that has recently completed a Phase I clinical trial, was evaluated in different PDAC cell lines under hypoxic conditions for comparison.

Panc10.05 [10] = tested on: Panc10.05
Pa03C [11] = tested on: Pa03C
[12] = tested on: human carcinoma colon cell line HCT-116; assay: Alamar blue cytotoxicity combination assay (CalcuSyn); assay type: cell-based; details: only one APX2014 dosage (12.5 uM), spiked with 75 uM CPI-613
Experimental: HTC-116 (Yunhua Liu) was seeded in a 96-well tissue culture plate at 2000 cells/well in DMEM+10% FBS and grown overnight at 37° C., 5% CO2. Drug Media DMEM+5% FBS was added at dosages of APX3330 (Apexian) in a 5-point spread from 75 uM to 6.3 uM and spiked with CPI-613 (Apexbio Technology) at 75 uM, or 50 uM, or alone for single agent. Cells were incubated for 72 hours at 37° C., 5% CO2. Media was exchanged with DMEM+5% FBS+10% Alamar blue fluorescent cell viability indicator (INVITROGEN™) and incubated 4 hours at 37° C., 5% CO2 and then read on a fluorescent reader (SYNERGY™ H4 BioTek). […] depicts Chou-Talalay Index (CI) of dose combinations (CalcuSyn). FIG. 32E depicts synergistic drug combinations (CalcuSyn) of APX3330 spiked with 50 uM CPI-613 or 75 uM CPI-613. […] Data shown is the average of 3 separate cytotoxicity assays; each assay normalized to media only control.
HTC-116 (Yunhua Liu) was seeded in a 96-well tissue culture plate at 2000 cells/well in DMEM+10% FBS and grown overnight at 37° C., 5% CO2. Drug Media DMEM+5% FBS was added at dosages of APX3330 (Apexian) from 100 uM to 0.4 uM in a 10-point spread and spiked with CPI-613 (Apexbio Technology) at 100 uM, or 75 uM, or alone for single agent. Cells were incubated for 72 hours at 37° C., 5% CO2. Media was exchanged with DMEM+5% FBS+10% Alamar blue fluorescent cell viability indicator (INVITROGEN™) and incubated 4 hours at 37° C., 5% CO2 and then read on a fluorescent reader (SYNERGY™ H4 BioTek). […] FIG. 33D depicts Chou-Talalay Index (CI) of dose combinations (CalcuSyn). FIG. 33E depicts synergistic drug combinations (CalcuSyn) of APX3330 spiked with 100 uM CPI-613 or 75 uM CPI-613. […] Data shown is the average of 3 separate cytotoxicity assays; each assay normalized to media only control.
HTC-116 (Yunhua Liu) was seeded in a 96-well tissue culture plate at 2000 cells/well in DMEM+10% FBS and grown overnight at 37° C., 5% CO2. Drug Media DMEM+5% FBS was added at dosages of APX2014 (Apexian) in a 5-point spread from 25 uM to 1.6 uM and spiked with CPI-613 (Apexbio Technology) at 75 uM, or 50 uM, or alone for single agent. Cells were incubated for 72 hours at 37° C., 5% CO2. Media was exchanged with DMEM+5% FBS+10% Alamar blue fluorescent cell viability indicator (INVITROGEN™) and incubated 4 hours at 37° C., 5% CO2 and then read on a fluorescent reader (SYNERGY™ H4 BioTek). […] FIG. 34D depicts Chou-Talalay Index (CI) of dose combinations (CalcuSyn). FIG. 34E depicts synergistic drug combinations (CalcuSyn) of APX2014 spiked with 50 uM CPI-613 or 75 uM CPI-613. Drug combination synergy could not be ascertained at APX2014 dosages when spiked with 50 uM CPI-613. […] Data shown is the average of 3 separate cytotoxicity assays; each assay normalized to media only control.
HTC-116 (Yunhua Liu) was seeded in a 96-well tissue culture plate at 2000 cells/well in DMEM+10% FBS and grown overnight at 37° C., 5% CO2. Drug Media DMEM+5% FBS was added at dosages of APX3330 (Apexian) from 100 uM to 0.4 uM in a 10-point spread and spiked with CB-839 (Sigma-Aldrich) at 1000 nM, or 500 nM, or alone for single agent. Cells were incubated for 72 hours at 37° C., 5% CO2. Media was exchanged with DMEM+5% FBS+10% Alamar blue fluorescent cell viability indicator (INVITROGEN™) and incubated 4 hours at 37° C., 5% CO2 and then read on a fluorescent reader (SYNERGY™ H4 BioTek). FIG. 35A depicts APX3330 and CB-839 single agent effects. FIG. 35B depicts APX3330 and CB-839 synergistic combo effects. […] FIG. 35E depicts synergistic drug combinations (CalcuSyn) of APX3330 spiked with 1000 nM CB-839 or 500 nM CB-839 (5-pt only). […] Data shown is the average of 3 separate cytotoxicity assays; each assay normalized to media only control.

[13] = tested on: mouse colon cell line MC-38; assay: Alamar blue cytotoxicity assay; assay type: cell-based; details: single agent, 72 hours
Experimental: MC-38 cells (Yunhua Liu) were seeded in a 96-well tissue culture plate at 2000 cells/well in DMEM+10% FBS and grown overnight at 37° C., 5% CO2. […] Cells were incubated for 72 hours at 37° C., 5% CO2. Media was exchanged with DMEM+5% FBS+10% Alamar blue fluorescent cell viability indicator (Invitrogen™) and incubated 4 hours at 37° C., 5% CO2 and then read on a fluorescent reader (Synergy™ H4 BioTek). […] Data shown is the average of 3 separate cytotoxicity assays; each assay normalized to media only control.

[14] = tested on: bladder cell line BLCAb001; assay: 96-hour viability assay, APX2014 with cisplatin; assay type: cell-based; details: APX2014 doses of 6 mM-3 mM in combination with cisplatin
Experimental: The BLCAb001 (cisplatin resistant) cell line was treated with increasing concentrations of APX2014 and cisplatin as single agents and in combination and assayed in a 96-hour viability assay. The concentrations of APX2014 range from 6 mM-0.38 mM in combination with the indicated cisplatin doses (FIG. 36A). […] The concentrations of Cisplatin as a single agent range from 2.5 mM-0.04 mM (FIG. 36B).

[15] = co-culture with Pa03C, D12 curves
[16] = co-culture with Panc10.05, D12 curves
[17] = Homo sapiens, Panc1005, Panc10.05, N = 3, read-out: LC50 (the source's name)

With `CCC/C(=C\C1=C(OC)C(=O)c2ccccc2C1=O)C(=O)N(CC)CC` [APX2009, (2E)-2-[(3-methoxy-1,4-dioxo-1,4-dihydronaphthalen-2-yl)methylidene]-N,N-diethylpentanamide] the “fold less of the concentration compared to APX3330 to attenuate CA9 expression” value (CA9 [1]) was 10 fold, the CC50 (Pa03C [2]) was 6.9 µM and the CC50 (CAFs (CAF19 cells); [15]) was 13.1 µM. For the same compound, the CC50 (CAFs (CAF19 cells); [16]) was 14.1 µM, the CC50 (Panc10.05 [3]) was 9.4 µM and the “effect on intracellular pH as single agent” value (“effect on intracellular pH” for short) (10.05 cells) was “decreased intracellular pH”. The CC50 (Pa03C [4]; Homo sapiens) was 6.7 µM, the CC50 (Panc10.05 [5]; [17]) was 4.9 µM and the “fold less required vs. APX3330 to decrease hypoxia-induced CA9 mRNA and protein levels” value (CA9 [6]) was 10 fold. For the same compound, the “tumor killing in combination with napabucasin” value ([7]; 3D spheroid model (tumor and CAF)) was “synergistic tumor killing effect” and the “single agent efficacy on 3D spheroid growth” value [7] was “as effective as APX3330”.

For `CC(=O)O[C@@]12CO[C@@H]1C[C@H](O)[C@@]1(C)C(=O)[C@H](O)C3=C(C)[C@@H](OC(=O)[C@H](O)[C@@H](NC(=O)OC(C)(C)C)c4ccccc4)C[C@@](O)([C@@H](OC(=O)c4ccccc4)[C@H]21)C3(C)C` [Docetaxel], the “cytotoxicity in combination with Ref-1 inhibition” value (PDAC cells and CAFs) was “more effective than either agent alone”.

In the case of `N#CC[C@H](C1CCCC1)n1cc(-c2ncnc3[nH]ccc23)cn1` [Rux, Ruxolitinib, reference compound], the average tumor size [8] is reported as 1750 mm³.

With `CC(=O)Nc1cccc(-n2c(=O)n(C3CC3)c(=O)c3c(Nc4ccc(I)cc4F)n(C)c(=O)c(C)c32)c1` [Trametinib] the “cytotoxicity in combination with Ref-1 inhibition” value (PDAC cells and CAFs) was “more effective than either agent alone”.

For `NS(=O)(=O)c1ccc(NC(=O)Nc2ccc(F)cc2)cc1` [SLC-0111, reference compound], the CC50 [9] was under 100 µM, the CC50 (Pa03C [2]) was 51.9 µM and the CC50 (CAFs (CAF19 cells); [15]) was 97 µM. For the same compound, the CC50 (CAFs (CAF19 cells); [16]) was 98.2 µM, the CC50 (Panc10.05 [3]) was 64 µM and the “effect on intracellular pH” value (10.05 cells) was “did not affect”. For the same compound, the CC50 (Pa03C [4]; Homo sapiens) was 90.8 µM and the CC50 (Panc10.05 [5]; [17]) was 63.9 µM.

`CCC/C(=C\C1=C(OC)C(=O)c2ccccc2C1=O)C(=O)NOC` [APX2014, (2E)-2-[(3-methoxy-1,4-dioxo-1,4-dihydronapthalen-2-yl)methylidene]-N-methoxypentanamide] was tested, and the CC50 (Panc10.05 [10]) was 0.3 µM, the “fold less of the concentration compared to APX3330 to attenuate CA9 expression” value (CA9 [1]) was 10 fold and the CC50 (Pa03C [11]) was 1.1 µM. For the same compound, the “drug combination synergy (Chou-Talalay, CalcuSyn)” value [12] was “Synergy was observed”, the “effect on intracellular pH” value (10.05 cells) was “decreased intracellular pH” and the EC10 [13] was 2.0 µM. For the same compound, the EC30 [13] was 3.0 µM, the combination index [14] was over 1.0 and the CC50 (Pa03C [4]) was 3.5 µM. The CC50 (Panc10.05 [5]; Panc10.05, N = 3, read-out: LC50 (the source's name)) was 1.3 µM, the “fold less required vs. APX3330 to decrease hypoxia-induced CA9 mRNA and protein levels” value (CA9 [6]) was 10 fold and the “single agent efficacy on 3D spheroid growth” value [7] was “as effective as APX3330”.
